Activity calls are given as the source filed them.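 The calls were made as follows: active = AC50, the dose giving half-maximal effect, exceeds a fixed cutoff for a compound that rescues yeast growth under heat; inactive = the rest, inconclusive results apart.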

In the assay the test system is S. cerevisiae Burl-1 ts mutant growth, BacTiter-Glo, 38.5C 24 h. Put plainly: growth induction of Burl-1 ts yeast mutant, dose response, counter-screen for SUMOylation pathway inhibitor project, whole organism, S. cerevisiae, luminescence (AID 463199). For orientation: A counterscreen serves to expose hits that act by an unwanted route or on another target.
The term AC50 denotes the concentration giving half of the maximal activity seen. In the case of `COc1cc(C(=O)Nc2ccc3c(c2)OCCO3)ccc1-n1cnnn1`, the AC50 was > 42 µM (inactive).
To `O=C(Oc1ccc2c(c1)OCO2)c1cccs1` belongs > 42 µM (inactive); to `O=C(c1ccccc1)C(CN1CCCC1)c1ccccc1` (stereo not given), > 42 µM (inactive); to `O=C(O)CC(NC(=O)c1ccc2c(c1)OCO2)c1cccc([N+](=O)[O-])c1` (stereo not given), > 42 µM (inactive).
For the compound `O=C(NCCCN1CCN(c2ccccc2F)CC1)Nc1ccccc1[N+](=O)[O-]`, the concentration at half-maximal activity (AC50) was 25.4 µM.
To `Cc1cc(=O)n2[nH]c(-c3ccc(F)cc3)nc2n1` belongs > 42 µM (inactive); to `CS(=O)(=O)c1ccc(Cl)c(NC(=O)c2ccc3ccccc3c2)c1`, > 42 µM (inactive).
As to `COCCNC(=O)C(=O)NCC1OCCN1C(=O)c1ccc(Cl)cc1` (stereo not given), the AC50 was > 42 µM (inactive).
On to `Cc1nc(-c2ccc(Cl)cc2)sc1C1(C)CC(c2c(Cl)cccc2Cl)=NO1` (stereo not given), for which the AC50 is > 42 µM (inactive).
`CCOc1ccccc1C(=O)N(Cc1cccs1)C1CCS(=O)(=O)C1` (stereo not given): the AC50 was > 42 µM (inactive).
Regarding `CCN1C(=O)c2cccc3c(S(=O)(=O)Nc4ccc(OC)cc4OC)ccc1c23`, the AC50 was > 42 µM (inactive).
On to `CN(C)CCN(Cc1ccc(Cl)cc1)c1ccccn1`, for which the AC50 is 36.3 µM.
In the case of `Cn1c(SCC(=O)Nc2nnc(-c3ccccc3)o2)nnc1C1CC1`, the AC50 is > 42 µM (inactive).
With `CCc1cc2c(=O)c(-c3nc4ccccc4n3C)c(C)oc2c(CN2CCOCC2)c1O`, the AC50 was 22.7 µM.
Next, `CSCCc1nc(SCC(=O)Nc2nnc(C)s2)[nH]c1C`: > 42 µM (inactive).
For `Cc1ccc(-c2cc(C(=O)O)c3ccccc3n2)s1`, the AC50 was > 42 µM (inactive).
Consider `COc1ccc(-c2nnc(SCC(C)C)o2)cc1`, for which the AC50 was > 42 µM (inactive).
Consider `Cc1noc(C)c1Cc1ccc(O)cc1`, for which the AC50 was > 42 µM (inactive).
For `CCOc1ccc(Br)cc1CNCCN1CCOCC1`, the AC50 is > 42 µM (inactive).
For `O=C(Nc1ccc2c(c1)oc1ccccc12)C1CC1`, the AC50 is > 42 µM (inactive).
For `OCC[C@@H]1C[C@H](O)[C@@H](O)[C@]2(CCc3ccccc3CO2)O1`, the AC50 is > 42 µM (inactive).
As to `O=C(COc1ccccc1)Nc1cccc(-c2nnc(-c3ccccc3)o2)c1`, the AC50 is > 42 µM (inactive).
In the case of `COc1cccc(C2CC(c3cccc(NS(C)(=O)=O)c3)=NN2C(=O)c2ccccc2)c1OC` (stereo not given), the AC50 is > 42 µM (inactive).
For `CCN(C(=O)COC(=O)c1cc([N+](=O)[O-])ccc1N1CCOCC1)C1CCCCC1`, the AC50 was > 42 µM (inactive).
Regarding `Cc1nc(-c2ccncc2)sc1C(=O)Nc1ccc(Br)cc1`, the AC50 was > 42 µM (inactive).
As to `O=C(OCCCN=C1NS(=O)(=O)c2ccccc21)c1cccs1`, the AC50 was > 42 µM (inactive).
`CCOc1cc(S(=O)(=O)NCc2ccc3c(c2)OCO3)c(C)cc1C`: the AC50 is > 42 µM (inactive).
`COc1ccc(NC(=O)C2CCCN(C(=O)Nc3cccc(OC)c3)C2)cc1` (stereo not given): the AC50 was > 42 µM (inactive).
On to `O=C(c1cnn2c(C(F)(F)F)cc(-c3ccco3)nc12)N1CCCc2ccccc21`, for which the AC50 was > 42 µM (inactive).
Turning to `CC1(C)Cc2c(cnn2-c2ccc(F)cc2)C(NC(=O)CCCN2CCCCC2=O)C1` (stereo not given), the AC50 was > 42 µM (inactive).
Next, `C/C(N)=C(/C#N)C(=O)CSc1nnc(-c2ccccc2)n1C`: > 42 µM (inactive); `COc1cc(C(=O)N/N=C/c2ccccn2)cc(OC)c1OC`: > 42 µM (inactive).
For the compound `CC1=C(C(=O)OCc2ccccc2)C(c2cccc(F)c2)NC(=O)N1` (stereo not given), the AC50 is > 42 µM (inactive).
Regarding `CCOC(=O)C(NC(=O)c1ccccc1)(N1CCOCC1)C(F)(F)F` (stereo not given), the AC50 is > 42 µM (inactive).
In the case of `Cc1ccc(O)c(C(=O)CC(=O)c2cccc(F)c2)c1`, the AC50 was 20.1 µM.
To `COc1ccccc1N1CCN(C(=O)C(=O)N/N=C/c2ccccc2F)CC1` belongs > 42 µM (inactive); to `COc1ccc(-c2cc(CC3(C(=O)O)CCN(C(=O)OC(C)(C)C)CC3)on2)c(OC)c1`, > 42 µM (inactive).
For the compound `Cn1c(=O)c2c(ncn2CC(=O)OCC(=O)Nc2ccc(Cl)cc2)n(C)c1=O`, the AC50 was > 42 µM (inactive).
Next, `c1ccc(OCCCc2nc(-c3cccnc3)no2)cc1`: > 42 µM (inactive); `O=C(Cc1cccs1)Nc1nnc(-c2ccncc2)s1`: > 42 µM (inactive).
As to `Cc1ccc(NC(=O)C(CC(C)C)NC(=O)C2CCC(C)CC2)nc1` (stereo not given), the AC50 was > 42 µM (inactive).
As for `CCN1C(=O)N(C)[C@@H](c2ccccc2)C(C(=O)OC)=C1C`, the AC50 was > 42 µM (inactive).
For the compound `COc1ccc(N2CCN(C(c3cccs3)C(C)NS(C)(=O)=O)CC2)cc1` (stereo not given), the AC50 is > 42 µM (inactive).
On to `CCOC(=O)C1(Cc2cccc(F)c2)CCN(C(=O)c2cnccn2)CC1`, for which the AC50 was > 42 µM (inactive).
For `CCCC(=O)Nc1ccc(Sc2ccc([N+](=O)[O-])cc2)cc1`, the AC50 is > 42 µM (inactive).
As for `Clc1ccc(CN(Cc2ccccc2)C(c2cccs2)c2nnnn2C2CCCC2)cc1` (stereo not given), the AC50 is > 42 µM (inactive).
As for `CCCS(=O)(=O)N1CCC(C(=O)N2CCc3ccccc3C2)CC1`, the AC50 was > 42 µM (inactive).
Turning to `O=C(NCc1csc(-c2cccs2)n1)Nc1ccc(F)cc1F`, the AC50 was > 42 µM (inactive).
Next, `Cc1cccc(N/N=C/c2c(O)[nH]c(=S)[nH]c2=O)c1`: > 42 µM (inactive); `O=C(CS(=O)c1ccc(C(F)(F)F)cc1[N+](=O)[O-])Oc1ccc(Cl)cc1` (stereo not given): > 42 µM (inactive); `CCN(C(=O)COC(=O)c1c(-c2ccccc2)noc1C)c1c(N)n(Cc2ccccc2)c(=O)[nH]c1=O`: > 42 µM (inactive).
Regarding `Cc1cc(=O)oc(C)c1C(=O)Nc1ccc(Cl)cn1`, the AC50 is > 42 µM (inactive).
On to `CCCc1ccc(S(=O)(=O)NCCc2ccncc2)cc1`, for which the AC50 is > 42 µM (inactive).
Consider `Cc1ccc2nc(N/N=C/c3ccccc3F)nc(-c3ccccc3)c2c1`, for which the AC50 is > 42 µM (inactive).
On to `O=CNCCCc1nc2ccccc2n1CCc1ccccc1`, for which the AC50 was > 42 µM (inactive).
Regarding `CCCOC(=O)c1ccc(O)c(OC)c1`, the AC50 is > 42 µM (inactive).
To `NC(=O)c1cccc2cc3ccccc3cc12` belongs > 42 µM (inactive); to `CC(C)Oc1ccc(C2(C#N)CC[N+](C)(C)CC2)cc1`, > 42 µM (inactive).
Turning to `C=CCOC(=O)C(C#N)c1nc2ccccc2nc1N1CCN(Cc2ccccc2)CC1` (stereo not given), the AC50 is > 42 µM (inactive).
`CCCOc1ccc([N+](=O)[O-])c(N)c1`: the AC50 was > 42 µM (inactive).
Take `CCN1C(=O)N(c2ccc(Cl)cc2)C(C)=CC1(C)C`: the AC50 is > 42 µM (inactive).
In the case of `O=S(=O)(NCC1CCCO1)c1cc(Cl)ccc1Br` (stereo not given), the AC50 was > 42 µM (inactive).
For the compound `COc1cccc(CN2CCN(C(=O)c3cccc4ccccc34)CC2)c1OC`, the AC50 is > 42 µM (inactive).
In the case of `O=C(c1ccc2c(=O)n(Cc3ccccc3Cl)c(=S)[nH]c2c1)N1CCOCC1`, the AC50 was > 42 µM (inactive).
Regarding `C=CCSC1=C(C#N)C(c2ccc(C(C)C)cc2)CC(=O)N1` (stereo not given), the AC50 was > 42 µM (inactive).

The record behind these values is PubChem BioAssay AID463199 (Broad Institute, 2010).
